Measurements as given in patent US12357711B2, “PSMA binding dual mode radiotracer and therapeutic” (Technische Universität München, priority 2019, dated 2025).
Where “and” joins values, the source holds several entries; their conditions need not be identical. Identical values can stand only once.

Assays:
[1] = test system: LNCaP tumor-bearing SCID mice; assay: Biodistribution at 1 h p.i.; type: in vivo
Procedure: FIG. 10: Biodistribution (in % ID/g) of ^18E-labeled rhPSMA tracers at 1 h p.i in LNCaP tumor-bearing SCID mice. Data are expressed as mean±SD (n=4 for rhPSMA7.1, n=5 for 7.2, n=4 for 7.3, n=5 for 7.4 and n=3 for 7-rac).

patients = assay: Human biodistribution and uptake in tumor lesions (PET/CT, SUV); type: in vivo; conditions: clinical PET/CT
Procedure: Human biodistribution was estimated by analysing clinical ^18F-rhPSMA-7- and ^18F-rhPSMA-7.3-PET/CT exams in 47 and 32 patients, respectively.
The mean and maximum standardized uptake values (SUVmean/SUVmax) were determined for background (gluteal muscle), normal organs (salivary glands, blood pool, lung, liver, spleen, pancreas, duodenum, kidney, bladder, bone) and three representative tumor lesions. Tumor uptake was analyzed in 89 lesions (26 primary tumors/local recurrences, 23 bone, 38 lymph node and 2 visceral metastases) and 63 lesions (14 primary tumors/local recurrences, 30 bone, 18 lymph node and 1 visceral metastases) for ^18F-rhPSMA-7 and ^18F-rhPSMA-7.3, respectively.
Organ-background and Tumor-background ratios were calculated.

Substance: [^19F][^natGa]D/L-Dap-R/S-DOTAGA-rhPSMA7 [rhPSMA7-rac]
- Biodistribution adrenals [1]: 3.0 ± 0.45 % ID/g
- Biodistribution blood [1]: 1.1 ± 0.03 % ID/g
- Biodistribution bone [1]: 0.91 ± 0.11 % ID/g
- Biodistribution heart [1]: 0.69 ± 0.07 % ID/g
- Biodistribution intestine [1]: 0.60 ± 0.27 % ID/g
- Biodistribution kidneys [1]: 71.3 ± 13.3 % ID/g
- Biodistribution liver [1]: 0.67 ± 0.07 % ID/g
- Biodistribution lung [1]: 1.4 ± 0.17 % ID/g
- Biodistribution muscle [1]: 0.36 ± 0.06 % ID/g
- Biodistribution pancreas [1]: 0.60 ± 0.10 % ID/g
- Biodistribution spleen [1]: 11.1 ± 2.3 % ID/g
- Biodistribution stomach [1]: 0.49 ± 0.07 % ID/g
- Biodistribution tumor ([1]; LNCaP tumor): 10.4 ± 0.67 % ID/g
- SUVmax bladder, max (patients): 112.0
- SUVmax bladder, mean (patients): 8.5
- SUVmax bladder, min (patients): 0.5
- SUVmax bloodpool, max (patients): 3.9
- SUVmax bloodpool, mean (patients): 2.4
- SUVmax bloodpool, min (patients): 1.6
- SUVmax duodenum, max (patients): 32.7
- SUVmax duodenum, mean (patients): 14.8
- SUVmax duodenum, min (patients): 2.8
- SUVmax kidney, max (patients): 75.2
- SUVmax kidney, mean (patients): 44.8
- SUVmax kidney, min (patients): 19.1
- SUVmax liver, max (patients): 25.2
- SUVmax liver, mean (patients): 9.5
- SUVmax liver, min (patients): 4.5
- SUVmax lungs, max (patients): 3.1
- SUVmax lungs, mean (patients): 1.1
- SUVmax lungs, min (patients): 0.5
- SUVmax pancreas, max (patients): 7.9
- SUVmax pancreas, mean (patients): 3.7
- SUVmax pancreas, min (patients): 1.8
- SUVmax parotic gland, max (patients): 42.3
- SUVmax parotic gland, mean (patients): 23.8
- SUVmax parotic gland, min (patients): 8.2
- SUVmax spleen, max (patients): 21.0
- SUVmax spleen, mean (patients): 11.8
- SUVmax spleen, min (patients): 4.7
- SUVmax submandibular gland, max (patients): 43.8
- SUVmax submandibular gland, mean (patients): 27.0
- SUVmax submandibular gland, min (patients): 10.1
- SUVmean bladder, max (patients): 85.7
- SUVmean bladder, min (patients): 0.3
- SUVmean bloodpool, max (patients): 17.0
- SUVmean bloodpool, mean (patients): 2.0
- SUVmean bloodpool, min (patients): 1.1
- SUVmean duodenum, max (patients): 23.9
- SUVmean duodenum, mean (patients): 10.9
- SUVmean duodenum, min (patients): 1.9
- SUVmean kidney, max (patients): 54.7
- SUVmean kidney, mean (patients): 32.4
- SUVmean kidney, min (patients): 13.2
- SUVmean liver, max (patients): 17.7
- SUVmean liver, mean (patients): 7.0
- SUVmean liver, min (patients): 3.2
- SUVmean lungs, max (patients): 2.0
- SUVmean lungs, mean (patients): 0.7
- SUVmean lungs, min (patients): 0.3
- SUVmean pancreas, max (patients): 5.5
- SUVmean pancreas, mean (patients): 2.5
- SUVmean pancreas, min (patients): 1.3
- SUVmean parotic gland, max (patients): 32.7
- SUVmean parotic gland, mean (patients): 16.9
- SUVmean parotic gland, min (patients): 5.5
- SUVmean spleen, max (patients): 17.1
- SUVmean spleen, mean (patients): 9.1
- SUVmean spleen, min (patients): 3.4
- SUVmean submandibular gland, max (patients): 29.7
- SUVmean submandibular gland, mean (patients): 19.6
- SUVmean submandibular gland, min (patients): 7.0
- SUVmax background, max (patients; gluteal muscle): 1.8
- SUVmax background, mean (patients; gluteal muscle): 1.0
- SUVmax background, min (patients; gluteal muscle): 0.6
- SUVmean background, max (patients; gluteal muscle): 1.2
- SUVmean background, mean (patients; gluteal muscle): 0.6
- SUVmean background, min (patients; gluteal muscle): 0.4
- SUVmax bone, max (patients; non-diseased bone): 3.1
- SUVmax bone, mean (patients; non-diseased bone): 1.7
- SUVmax bone, min (patients; non-diseased bone): 0.8
- SUVmean bone, max (patients; non-diseased bone): 2.1
- SUVmean bone, mean (patients; non-diseased bone): 1.1
- SUVmean bone, min (patients; non-diseased bone): 0.6
- SUVmax tumor, max (patients; tumor lesions): 167.2
- SUVmax tumor, mean (patients; tumor lesions): 27.6
- SUVmax tumor, min (patients; tumor lesions): 3.1
- SUVmean tumor, max (patients; tumor lesions): 115.7
- SUVmean tumor, min (patients; tumor lesions): 2.1
- SUVmean tumor, mean (patients; tumor lesions, listed as 18F-rhPSMA-7): 20.0±20.2 and 20.0
- SUVmean bladder, mean (patients; listed as 18F-rhPSMA-7): 6.3
